In the OligoGym collection:
These antisense oligonucleotides have a phosphorothioate backbone; sugars and methylation of C are not fully specified.

target: SMAD2; details: ASO
Also: test concentration or dose not given here.

Sequence | remaining target (mRNA or protein) (fraction of control)
AAACAGCCTCTTGTATCG | 0.29
AAACTTCCCCACCTATGT | 0.18

target: MAP2K6; details: ASO

Sequence | remaining target (mRNA or protein) (fraction of control)
AAGAGAGGATTCAGGGAAGC | ≥ 1
AATTTTAAGGCCAGGGTTTC | ≥ 1
ACACATGGCAGGAGGGACAA | 0.78
AGAAGAAAACAAACAAACAA | 0.82
ATCTGTTCCTTTGGATTCAT | 0.73
CAAGTGTCAGAAGAACCAAA | 0.7
CAGTTCATTCTATACTATAG | 0.7
CATTAGAAGGCTTGACGTCT | 0.67
CATTTTCCCCTTTCCTTTGA | ≥ 1
CCCTAAAAGATGTGGTGATC | ≥ 1
CCTTTCGACTGAGACATTTT | ≥ 1
CGAGAAAGAACTTTTGCTGT | ≥ 1
CGCTGCTGAAGAAAGATGCG | 0.85
CTACAAATCTACTTATAATT | 0.99
CTGAGACATTTTCCCCTTTC | 0.91
CTTCACCCCGAAACCCACCA | 0.34
CTTGCCTTTCGACTGAGACA | 0.58
GAATTTATCTAGTGATGTAT | ≥ 1
GACATTTTCCCCTTTCCTTT | 0.85
GACTGAGACATTTTCCCCTT | 0.88

Sequence | remaining target (mRNA or protein) (fraction of control)
GAGACATTTTCCCCTTTCCT | 0.66
GATGCATATTAAATAATTTC | 0.83
GCCAGGGCTGGCAGCTAAAA | 0.8
GCCATAAAAGGTGACAGTGA | 0.86
GCTCCAGGTCATCTGCCTTC | 0.65
GGAAATCGAAGGATGGCCAA | ≥ 1
GGTGGGCCGAACCAGAAGCC | ≥ 1
GTGAATTGCCAAATAGACAC | 0.8
GTTTCTCTTGACCGATGCAG | 0.55
GTTTCTGTTCCTGGCTATTT | 0.79
TATCAAAGAATTACTCACTA | 0.85
TATGTAGGCCGTTCTTTGGA | 0.95
TATTTTCCCTGTCAATTACT | 0.99
TCGACTGAGACATTTTCCCC | 0.8
TCTGTAGCTAGTTTTGCAAC | 0.88
TGCCTTTCGACTGAGACATT | 0.67
TTAGTCTCCAAGAATCAGTT | 0.96
TTGGAGTCTAAATCTCTAGG | ≥ 1
TTTCGACTGAGACATTTTCC | ≥ 1
TTTTCCCCTTTCCTTTGATG | ≥ 1

target: PCK2; details: ASO

Sequence | remaining target (mRNA or protein) (fraction of control)
TCACGCCGGAACCAGTTGAC | ≥ 1
TCCAGCCTGGCAGTGCAGGC | 0.75
TCCATCACAGATGTGGATGC | 0.87
TCGGATGAGGCCCTGCTGCT | 0.86
TGAGGCCGCTGAGATCCAAG | 0.67
TGATCTCCCGCTGGTCGGGC | 0.73
TGCCTTCCCTATTCCCAGAT | 0.82
TGCGGCCATGGCACCTGGGC | 0.55
TGGGTGTCTCTCGGGCACTG | 0.9
TTAAAATAGATAAGCATCTC | ≥ 1
TTGCACGGCCACTGGCTCAC | 0.94
TTTCCAGGGTTTGCCCAGCC | 0.55
